Eight compounds from ChEMBL document CHEMBL1143815, “Spread of extended-spectrum beta-lactamase CTX-M-producing escherichia coli clinical isolates in community and nosocomial environments in Portugal” (2007) can be followed below.

Assay type in all cases: functional
In experiment [1] the test system is Escherichia coli. Put plainly: Antibacterial activity against Escherichia coli INSRA5776 isolates expressing CTX-M-14 and TEM-1B enzymes by agar dilution method. (In agar dilution the substance is mixed into plates at graded concentrations.)
The subject of experiment [2] is Escherichia coli. Put plainly: Antibacterial activity against CTX-M group 1 enzyme producing Escherichia coli isolates by broth microdilution method.
Experiment [3] deals with Escherichia coli. Put plainly: Antibacterial activity against CTX-M group 9 enzyme producing Escherichia coli isolates by broth microdilution method. (In general: In broth dilution the organism is exposed to a series of concentrations in liquid medium.)
Experiment [4] relates to Escherichia coli. Put plainly: Antibacterial activity against CTX-M group 9 enzyme producing Escherichia coli isolates assessed as percent resistant isolates by broth microdilution method.
Experiment [5] has as its system Escherichia coli. Put plainly: Antibacterial activity against CTX-M group 9 enzyme producing Escherichia coli isolates assessed as percent nonsusceptible isolates by broth microdilution method.
Experiment [6] deals with Escherichia coli. Put plainly: Antibacterial activity against Escherichia coli DH5 alpha isolates by agar dilution method.
For experiment [7], the system named is Escherichia coli. Put plainly: Antibacterial activity against Escherichia coli DH5 alpha-URA5776 isolates expressing CTX-M-14 enzyme by agar dilution method.
In experiment [8] the test system is Escherichia coli. Put plainly: Antibacterial activity against Escherichia coli DH5 alpha-URA5905 isolates expressing CTX-M-15 and TEM-1B enzymes by agar dilution method.
The subject of experiment [9] is Escherichia coli. Put plainly: Antibacterial activity against Escherichia coli INSRA5924 isolates expressing CTX-M-32 and TEM-1B enzymes by agar dilution method.
The test system of experiment [10] is Escherichia coli. Put plainly: Antibacterial activity against Escherichia coli DH5 alpha-URA5924 isolates expressing CTX-M-32 by agar dilution method.
Experiment [11] concerns Escherichia coli. Put plainly: Antibacterial activity against CTX-M group 1 enzyme producing Escherichia coli isolates assessed as percent resistant isolates by broth microdilution method.
Experiment [12] has as its system Escherichia coli. Put plainly: Antibacterial activity against CTX-M group 1 enzyme producing Escherichia coli isolates assessed as percent nonsusceptible isolates by broth microdilution method.
The test system of experiment [13] is Escherichia coli. Put plainly: Antibacterial activity against Escherichia coli INSRA5905 isolates expressing CTX-M-15 and TEM-1B enzymes by agar dilution method.

In brackets after ≈: the same amount, converted by molar mass.

In general, MIC refers to the least concentration at which growth counts as inhibited. Broadly, the MIC50 is an inhibitory concentration at the 50% level, which refers to growth in some studies and to a panel of isolates in others. Usually MIC90 stands for the lowest concentration that inhibits either 90% of growth or 90% of the strains tested, depending on the study. Higher therefore signals weaker potency. Turning to `CO/N=C(\C(=O)N[C@@H]1C(=O)N2C(C(=O)[O-])=C(C[N+]3(C)CCCC3)CS[C@H]12)c1csc(N)n1`, the MIC in [1] came out at 8 µg/mL (≈ 16.6 µM); in [6], 0.03 µg/mL (≈ 0.0624 µM); in experiment [7] it was 2 µg/mL (≈ 4.16 µM); in experiment [8], 8 µg/mL (≈ 16.6 µM); in [9], 16 µg/mL (≈ 33.3 µM); in [10] it was 4 µg/mL (≈ 8.32 µM). Further, the MIC50 in [2] and in experiment [3] was more than 16 µg/mL throughout. Also, the MIC90 in [2] and in experiment [3] was more than 16 µg/mL throughout. Further, the Activity in experiment [4] was found to be 78%; in [5], 100%.
On to `CO/N=C(\C(=O)N[C@@H]1C(=O)N2C(C(=O)O)=C(COC(C)=O)CS[C@H]12)c1csc(N)n1` (stereo in doubt) [CEFOTAXIME], for which the MIC in [1] was found to be 32 µg/mL (≈ 70.3 µM); in experiment [6], 0.06 µg/mL (≈ 0.132 µM); in [7], 32 µg/mL (≈ 70.3 µM); in experiment [13] it was 512 µg/mL (≈ 1120 µM); in [8], 512 µg/mL (≈ 1120 µM); in experiment [9] it was 256 µg/mL (≈ 562 µM). The compound also came in with an MIC in experiment [10] of 128 µg/mL (≈ 281 µM). Besides, the MIC50 in experiment [2] and in experiment [3] was more than 32 µg/mL throughout. In addition, the MIC90 in experiment [2] and in experiment [3] was more than 32 µg/mL in each case. Further, the results for the Activity in [11], in [12] and in [5] were 99%, 100% and 100%, respectively.
`NCC[C@H](O)C(=O)N[C@@H]1C[C@H](N)[C@@H](O[C@H]2O[C@H](CN)[C@@H](O)[C@H](O)[C@H]2O)[C@H](O)[C@H]1O[C@H]1O[C@H](CO)[C@@H](O)[C@H](N)[C@H]1O` [AMIKACIN]: the MIC50 in experiment [2] and in experiment [3] was not above 8 µg/mL throughout. The MIC90 in [2] and in [3] was 16 µg/mL (≈ 27.3 µM) throughout. Also, the Activity was determined as 4% in [11], 7% in experiment [12] and 0% in experiment [5].
With `C[C@H]1[C@H](NC(=O)/C(=N\OC(C)(C)C(=O)O)c2csc(N)n2)C(=O)N1S(=O)(=O)O` [AZTREONAM], the MIC in [1] was 8 µg/mL (≈ 18.4 µM); in experiment [7], 8 µg/mL (≈ 18.4 µM); in experiment [13], 128 µg/mL (≈ 294 µM); in experiment [8], 64 µg/mL (≈ 147 µM); in [9], 64 µg/mL (≈ 147 µM); in experiment [10], 64 µg/mL (≈ 147 µM). Besides, the MIC50 in [2] was more than 16 µg/mL; in experiment [3] it was 8 µg/mL (≈ 18.4 µM). Besides, the MIC90 in experiment [2] and in [3] was more than 16 µg/mL throughout. For the same compound, the Activity in experiment [11] came out at 100%; in [12], 100%; in experiment [4], 11%; in [5] it was 22%.
As for `CO[C@@]1(NC(=O)Cc2cccs2)C(=O)N2C(C(=O)O)=C(COC(N)=O)CS[C@@H]21` [CEFOXITIN], the MIC in [1] was 32 µg/mL (≈ 74.9 µM); in [6], 4 µg/mL (≈ 9.36 µM); in experiment [7], 4 µg/mL (≈ 9.36 µM); in [13], 16 µg/mL (≈ 37.4 µM); in [8], 4 µg/mL (≈ 9.36 µM); in [9], 16 µg/mL (≈ 37.4 µM). This compound returned an MIC in experiment [10] of 8 µg/mL (≈ 18.7 µM). For the same compound, the MIC50 in experiment [2] and in experiment [3] was not above 4 µg/mL in each case. For the same compound, the MIC90 was 8 µg/mL (≈ 18.7 µM) in [2] and more than 16 µg/mL in experiment [3]. The Activity in experiment [11] was 1%; in experiment [12] it was 5%; in experiment [4] it was 0%; in experiment [5], 11%.
In the case of `CC(C)(O/N=C(\C(=O)N[C@@H]1C(=O)N2C(C(=O)[O-])=C(C[n+]3ccccc3)CS[C@H]12)c1csc(N)n1)C(=O)O` [CEFTAZIDIME], the MIC stood at 2 µg/mL (≈ 3.66 µM) in experiment [1]; 0.25 µg/mL (≈ 0.457 µM) in experiment [6]; 1 µg/mL (≈ 1.83 µM) in [7]; 128 µg/mL (≈ 234 µM) in experiment [13]; 64 µg/mL (≈ 117 µM) in experiment [8]; 16 µg/mL (≈ 29.3 µM) in experiment [9]. Further, in experiment [10], the MIC is 16 µg/mL (≈ 29.3 µM). Also, the results for the MIC50 in experiment [2] and in experiment [3] were more than 16 µg/mL and 2 µg/mL (≈ 3.66 µM), respectively. The MIC90 in experiment [2] and in [3] was more than 16 µg/mL throughout. The Activity in experiment [11] is reported as 98%; in experiment [12], 99%; in experiment [4], 11%; in experiment [5], 11%.
Turning to `CCn1cc(C(=O)O)c(=O)c2cc(F)c(N3CCNCC3)cc21` [NORFLOXACIN], the MIC50 in experiment [2] was more than 8 µg/mL; in experiment [3], not above 2 µg/mL. Further, the MIC90 in experiment [2] and in experiment [3] was more than 8 µg/mL in each case. Also, the Activity in experiment [11] came to 98%; in [12], 98%; in experiment [4], 33%; in [5], 33%.
Take `NC[C@H]1O[C@H](O[C@H]2[C@H](O)[C@@H](O[C@H]3O[C@H](CO)[C@@H](O)[C@H](N)[C@H]3O)[C@H](N)C[C@@H]2N)[C@H](N)C[C@@H]1O` [TOBRAMYCIN]: the MIC50 in experiment [2] was more than 8 µg/mL; in experiment [3], not above 2 µg/mL. In addition, the MIC90 in experiment [2] and in [3] was more than 8 µg/mL each time. The Activity is recorded as 94% in [11], 95% in experiment [12] and 22% in experiment [5].
